Test results as given in patent publication US20140121258A1, “COMPOUNDS ACT AT MULTIPLE PROSTAGLANDIN RECEPTORS GIVING A GENERAL ANTI-INFLAMMATORY RESPONSE” (ALLERGAN, INC., priority 2010, published 2014).

Experiments:
[1] = target: T1, human prostanoid EP4 receptor (Homo sapiens, UniProt P35408); assay: FLIPR Ca2+ signaling antagonist assay, EP4 receptor stable cell line; type: cell-based; conditions: HEK-293 EBNA stable cells with chimeric Gqs, standard agonist PGE2; NA = inactive (no antagonism or Kb≧10,000 nM)
T1 construct: expressed in transfected cells
T1 sequence (P35408 whole entry): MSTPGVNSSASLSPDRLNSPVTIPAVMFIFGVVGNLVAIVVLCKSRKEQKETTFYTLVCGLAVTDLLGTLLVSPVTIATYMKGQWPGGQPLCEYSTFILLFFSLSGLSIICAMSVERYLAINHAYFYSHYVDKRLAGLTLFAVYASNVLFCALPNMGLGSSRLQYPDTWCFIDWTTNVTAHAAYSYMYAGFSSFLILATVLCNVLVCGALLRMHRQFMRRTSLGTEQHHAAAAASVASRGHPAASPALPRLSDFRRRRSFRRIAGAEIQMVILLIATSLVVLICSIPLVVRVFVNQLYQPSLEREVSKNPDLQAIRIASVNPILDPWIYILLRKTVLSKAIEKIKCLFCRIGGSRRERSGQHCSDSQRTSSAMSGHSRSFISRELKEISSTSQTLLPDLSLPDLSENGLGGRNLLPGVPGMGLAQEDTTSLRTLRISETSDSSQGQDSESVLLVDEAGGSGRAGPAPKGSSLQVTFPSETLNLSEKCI
Protocol: (§1) The above compounds were tested for PG antagonist activity as follows using human recombinant prostanoid receptor (DP1, EP1-4, FP, IP and TP) stable cell lines:
(§2) In order to measure the response of Gs and Gi coupled prostanoid receptors as a Ca^2+ signal, chimeric G protein cDNAs were used. Stable cell lines over-expressing human prostanoid DP1, EP1-4, FP, IP, and TP receptors were established as follows:
(§3) Briefly, human prostanoid DP1, EP2, and EP4 receptor cDNAs were co-transfected with chimeric Gqs cDNA containing a haemagglutanin (HA) epitope; human prostanoid EP3 receptors were co-transfected with chimeric Gqi-HA; human EP1, FP, IP, and TP receptor cDNAs were expressed with no exogenous G-proteins. Gqs and Gqi chimeric cDNAs (Molecular Devices, Sunnyvale, Calif., U.S.A.), as well as cDNAs of prostanoid receptors, were cloned into a pCEP4 vector with a hygromycin B selection marker. Transfection into HEK-293 EBNA (Epstein-Barr virus nuclear antigen) cells was achieved by the FuGENE 6 transfection Reagent (Roche Applied Science, Indianapolis, Ind., USA). Stable transfectants were selected according to hygromycin resistance. Because Gqs and Gqi contained an HA epitope, G-protein expression was detected by Western blotting analysis using anti-mouse HA monoclonal antibody and horseradish peroxidase (HRP)-conjugated secondary antibody, while functional expression of prostanoid receptors was detected by FLIPR screening (Matias et al., 2004). These stable cell lines were validated using previously published antagonists at 10 μM against serial dilutions of standard agonists by FLIPR functional assays for Ca^2+ Signaling (as described below).
(§4) Ca^2+ signaling studies were performed using a FLIPR TETRA system (Molecular Devices, Sunnyvale, Calif., USA) in the 384-format. This is a high-throughput instrument for cell-based assays to monitor Ca^2+ signaling associated with GPCRs and ion channels. Cells were seeded at a density of 5×10^4 cells/well in BioCoat poly-D-lysine coated, black wall, clear bottom 384-well plates (BD Biosciences, Franklin lakes, NJ, USA) and allowed to attach overnight in an incubator at 37° C. The cells were then washed twice with HBSS-HEPES buffer (Hanks' balanced salt solution without bicarbonate and phenol red, 20 mM HEPES, pH 7.4) using an ELx405 Select CW Microplate Washer (BioTek, Winooski, Vt., USA). After 60 min of dye-loading in the dark using the Ca^2+-sensitive dye Fluo-4AM (Invitrogen, Carlsbad, Calif., USA), at a final concentration of 2×10^−6M, the plates were washed 4 times with HBSS-HEPES buffer to remove excess dye and leaving 50 μl of buffer in each well. The plates were then placed in the FLIPR TETRA instrument and allowed to equilibrate at 37° C. AGN-211377 was added in a 25 μl volume to each well to give final concentrations of 0.1 μM, 0.3 μM, 1 μM, 3 μM, 10 μM, and 30 μM; or 0.067 μM, 0.1 μM, 0.2 μM, 0.3 μM, 0.67 μM, and 1 μM for cells over-expressing TP receptors. After 4.5 minutes, a 7-point serial dilution of the standard agonist for the corresponding receptor, in a 25 μl volume was injected at the final concentrations from 10^−11M to 10^−5M in 10-fold serial dilution increments for cells expressing human recombinant DP1, EP1, EP2, EP3, EP4, FP, and IP receptors. The dose range for the standard agonist for human recombinant TP receptors was from 10^−12M to 10^−6M. HBSS-HEPES buffer was used as the negative control for the standard agonists. Cells were excited with LED (light emitting diode) excitation at 470-495 nm and emission was measured through an emission filter at 515-575 nm. Assay plates were read for 3.5 minutes using the FLIPR^TETRA. The peak increase in fluorescence intensity was recorded for each well. On each plate, negative controls, dose response of positive controls, and co-treatments of antagonist-agonist for each dose were in triplicates. Standard agonists were as follows: DP=BW 245C, EP1-EP4=PGE2, FP=17-phenyl-PGF2α, IP=Cicaprost, and TP=U-46619. […]

[2] = target: T2, human prostanoid IP receptor (Homo sapiens, UniProt P43119); assay: FLIPR Ca2+ signaling antagonist assay, IP receptor stable cell line; type: cell-based; conditions: HEK-293 EBNA stable cells, standard agonist Cicaprost; NA = inactive (no antagonism or Kb≧10,000 nM)
T2 construct: expressed in transfected cells
T2 sequence (P43119 whole entry): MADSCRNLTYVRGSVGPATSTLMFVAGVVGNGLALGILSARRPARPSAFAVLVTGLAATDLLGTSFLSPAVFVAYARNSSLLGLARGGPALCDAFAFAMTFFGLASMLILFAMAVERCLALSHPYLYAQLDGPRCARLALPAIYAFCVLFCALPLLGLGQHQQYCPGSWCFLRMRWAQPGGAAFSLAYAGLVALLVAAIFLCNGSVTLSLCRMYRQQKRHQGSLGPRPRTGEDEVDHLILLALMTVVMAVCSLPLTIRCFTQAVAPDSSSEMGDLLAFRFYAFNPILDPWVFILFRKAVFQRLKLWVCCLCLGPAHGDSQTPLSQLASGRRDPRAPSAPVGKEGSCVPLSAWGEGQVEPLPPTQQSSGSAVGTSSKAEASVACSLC
Protocol: as §1, §2, §3, §4

[3] = target: T3, human prostanoid EP1 receptor (Homo sapiens, UniProt P34995); assay: FLIPR Ca2+ signaling antagonist assay, EP1 receptor stable cell line; type: cell-based; conditions: HEK-293 EBNA stable cells, standard agonist PGE2; NA = inactive (no antagonism or Kb≧10,000 nM)
T3 construct: expressed in transfected cells
T3 sequence (P34995 1-402): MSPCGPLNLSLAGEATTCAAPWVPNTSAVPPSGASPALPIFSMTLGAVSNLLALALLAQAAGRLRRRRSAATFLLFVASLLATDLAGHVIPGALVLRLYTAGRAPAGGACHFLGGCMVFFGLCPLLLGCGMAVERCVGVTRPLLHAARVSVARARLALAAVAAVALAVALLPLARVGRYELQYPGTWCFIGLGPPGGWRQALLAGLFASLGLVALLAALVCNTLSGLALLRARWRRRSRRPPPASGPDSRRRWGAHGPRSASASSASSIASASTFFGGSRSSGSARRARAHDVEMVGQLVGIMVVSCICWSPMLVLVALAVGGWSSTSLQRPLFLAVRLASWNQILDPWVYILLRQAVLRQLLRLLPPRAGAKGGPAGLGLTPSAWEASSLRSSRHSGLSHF
Protocol: as §1, §2, §3, §4

[4] = target: T4, human prostanoid EP2 receptor (Homo sapiens, UniProt P43116); assay: FLIPR Ca2+ signaling antagonist assay, EP2 receptor stable cell line; type: cell-based; conditions: HEK-293 EBNA stable cells with chimeric Gqs, standard agonist PGE2; NA = inactive (no antagonism or Kb≧10,000 nM)
T4 construct: expressed in transfected cells
T4 sequence (P43116 whole entry): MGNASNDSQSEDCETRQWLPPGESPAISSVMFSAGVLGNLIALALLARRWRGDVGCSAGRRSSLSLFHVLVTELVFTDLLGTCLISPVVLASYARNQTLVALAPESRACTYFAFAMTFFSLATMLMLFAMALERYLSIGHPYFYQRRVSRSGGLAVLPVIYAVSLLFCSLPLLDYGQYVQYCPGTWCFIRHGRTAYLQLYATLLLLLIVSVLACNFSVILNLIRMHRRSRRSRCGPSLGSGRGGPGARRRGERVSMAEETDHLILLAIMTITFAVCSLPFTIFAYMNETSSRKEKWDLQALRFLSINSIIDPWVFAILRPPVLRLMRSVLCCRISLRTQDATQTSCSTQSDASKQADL
Protocol: as §1, §2, §3, §4

[5] = target: T5, human prostanoid FP receptor (Homo sapiens, UniProt P43088); assay: FLIPR Ca2+ signaling antagonist assay, FP receptor stable cell line; type: cell-based; conditions: HEK-293 EBNA stable cells, standard agonist 17-phenyl-PGF2α; NA = inactive (no antagonism or Kb≧10,000 nM)
T5 construct: expressed in transfected cells
T5 sequence (P43088 whole entry): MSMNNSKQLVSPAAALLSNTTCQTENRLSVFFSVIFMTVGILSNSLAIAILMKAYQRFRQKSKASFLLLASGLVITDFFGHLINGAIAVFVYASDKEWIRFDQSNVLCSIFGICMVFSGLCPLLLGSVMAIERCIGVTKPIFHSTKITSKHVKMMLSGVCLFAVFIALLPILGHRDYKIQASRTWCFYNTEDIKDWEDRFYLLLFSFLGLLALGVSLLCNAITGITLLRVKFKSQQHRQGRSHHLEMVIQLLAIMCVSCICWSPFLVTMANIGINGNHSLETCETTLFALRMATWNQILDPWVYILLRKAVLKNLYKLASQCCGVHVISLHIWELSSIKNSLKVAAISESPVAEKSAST
Protocol: as §1, §2, §3, §4

[6] = target: T6, human prostanoid TP receptor (Homo sapiens, UniProt P21731); assay: FLIPR Ca2+ signaling antagonist assay, TP receptor stable cell line; type: cell-based; conditions: HEK-293 EBNA stable cells, standard agonist U-46619; NA = inactive (no antagonism or Kb≧10,000 nM)
T6 construct: expressed in transfected cells
T6 sequence (P21731 1-343): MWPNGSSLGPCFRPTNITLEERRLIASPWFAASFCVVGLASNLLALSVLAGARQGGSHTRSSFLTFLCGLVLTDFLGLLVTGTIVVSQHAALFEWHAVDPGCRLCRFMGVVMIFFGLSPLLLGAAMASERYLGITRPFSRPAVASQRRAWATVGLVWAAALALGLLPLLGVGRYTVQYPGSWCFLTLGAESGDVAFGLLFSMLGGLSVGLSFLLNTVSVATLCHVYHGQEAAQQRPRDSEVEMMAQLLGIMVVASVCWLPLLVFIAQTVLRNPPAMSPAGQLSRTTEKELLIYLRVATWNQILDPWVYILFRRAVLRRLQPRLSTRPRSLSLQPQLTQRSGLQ
Protocol: as §1, §2, §3, §4

[7] = target: T7, human prostanoid DP1 receptor (Homo sapiens, UniProt Q13258); assay: FLIPR Ca2+ signaling antagonist assay, DP1 receptor stable cell line; type: cell-based; conditions: HEK-293 EBNA stable cells with chimeric Gqs, standard agonist BW 245C; NA = inactive (no antagonism or Kb≧10,000 nM)
T7 construct: expressed in transfected cells
T7 sequence (Q13258 1-359): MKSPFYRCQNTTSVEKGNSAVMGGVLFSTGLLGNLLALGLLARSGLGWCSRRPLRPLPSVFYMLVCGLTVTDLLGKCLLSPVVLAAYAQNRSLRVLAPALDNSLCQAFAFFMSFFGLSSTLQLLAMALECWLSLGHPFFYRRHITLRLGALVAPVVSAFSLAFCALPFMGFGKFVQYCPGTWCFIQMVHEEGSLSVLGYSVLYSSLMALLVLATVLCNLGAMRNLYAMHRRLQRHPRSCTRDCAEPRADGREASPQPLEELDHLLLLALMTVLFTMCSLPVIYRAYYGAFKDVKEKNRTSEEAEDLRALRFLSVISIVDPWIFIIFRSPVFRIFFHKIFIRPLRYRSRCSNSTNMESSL
Protocol: as §1, §2, §3, §4

[8] = tested on: Dutch-belted pigmented rabbits; assay: Arachidonate induced uveitis, anterior chamber leukocyte infiltration; type: in vivo, rabbit; conditions: topical, concentrations of 0.1, 0.3 and 1%; 0.5% sodium arachidonate challenge; FIG. 12
Protocol: The rational for this protocol is to use arachidonate to directly produce ocular anterior segment uveitis, as opposed to using lipopolysaccharide (LPS) to indirectly release arachidonic acid.
Conscious male or female Dutch-belted pigmented rabbits weighing 2.5-3 kg were used for all in vivo slit lamp studies. Four animals were employed per test group. The right eye of each animal receiving 35 μl of topically administered test and the contralateral left eye of each animal receiving 35 μl of topically administered vehicle (t=0 minutes), followed 30 minutes later by treatment with 35 μl of 0.5% sodium arachidonate onto the surface of both eyes (t=30 minutes). Both eyes were examined by slit lamp 60 minutes following sodium arachdionate challenge (t=90 minutes) at 16× magnification under both white light and blue light illumination at an approximate angle of 45° through 1 mm and 5 mm slit widths.
Anterior chamber leukocyte infiltration was measured using a numerical scoring system to estimate cell number per field defined by a 5 mm slit width: 0=no cells per field (no response); 1=1-10 cells per field (mild); 2=11-20 cells per field (moderate); 3=[…] cells per field (severe); 4=>50 cells per filed (florid). Results are reported as the mean score value±S.E.M.

[9] = Allergic conjunctival itch (itch-scratch episodes); type: in vivo; conditions: FIGS. 10 and 11, both experiments
Protocol: The compounds of this invention were tested according to the method described in “Characterization of Receptor Subtypes Involved in Prostanoid-Induced Conjunctival Pruritis and Their Role in Mediating Conjunctival Itching”, Vol. 279, No. 1, (JPET)279, 137-142′ 1996 for their efficacy in alleviating itch.

[10] = target: T8, human prostanoid EP3 receptor (Homo sapiens, UniProt P43115); assay: FLIPR Ca2+ signaling antagonist assay, EP3 receptor stable cell line; type: cell-based; conditions: HEK-293 EBNA stable cells with chimeric Gqi, standard agonist PGE2; NA = inactive (no antagonism or Kb≧10,000 nM)
T8 construct: expressed in transfected cells
T8 sequence (P43115 1-390): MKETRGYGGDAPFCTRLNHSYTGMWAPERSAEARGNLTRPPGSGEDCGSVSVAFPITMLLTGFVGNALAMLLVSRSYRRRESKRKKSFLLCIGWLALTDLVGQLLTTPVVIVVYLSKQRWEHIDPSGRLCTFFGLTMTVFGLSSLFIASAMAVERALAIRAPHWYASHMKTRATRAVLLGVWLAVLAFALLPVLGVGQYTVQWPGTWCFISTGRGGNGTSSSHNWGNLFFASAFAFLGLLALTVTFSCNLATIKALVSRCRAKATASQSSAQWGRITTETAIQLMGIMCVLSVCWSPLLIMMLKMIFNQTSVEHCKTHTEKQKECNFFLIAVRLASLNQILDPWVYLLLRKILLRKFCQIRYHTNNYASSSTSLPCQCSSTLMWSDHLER
Protocol: as §1, §2, §3
Ca^2+ signaling studies were performed using a FLIPR TETRA system (Molecular Devices, Sunnyvale, Calif., USA) in the 384-format. […] Cells were excited with LED (light emitting diode) excitation at 470-495 nm and emission was measured through an emission filter at 515-575 nm. Assay plates were read for 3.5 minutes using the FLIPR^TETRA. The peak increase in fluorescence intensity was recorded for each well. […]

SMILES	Kb [1]	Kb [2]	Kb [3]	Kb [4]	Kb [5]	Kb [6]	Kb [7]	Kb [10]	effect in model for uveitis (anterior chamber leukocyte infiltration score) [8]	number of itch-scratch episodes [9]
CCC(CC)COc1ccc(Br)cc1Cn1nc(CCC(=O)O)cc1C [Example 3, 3-{1-[5-Bromo-2-(2-ethyl-butoxy)-benzyl]-5-methyl-1H-pyrazol-3-yl}-propionic acid]	85 nM	1600 nM	40 nM	2300 nM	75 nM	9 nM	140 nM	–	dose dependent response	significantly lower number of itch-scratch episodes
Cc1cc(CCC(=O)NS(=O)(=O)C(F)(F)F)nn1Cc1cc(Cl)ccc1OCc1ccc(Cl)cc1 [Example 1, N-(3-{1-[5-Chloro-2-(4-Chloro-Benzyloxy)-Benzyl]-5-Methyl-1H-Pyrazol-3-yl}-Propionyl)-C,C,C-Trifluoromethanesulfonamide]	150 nM	620 nM	22 nM	3100 nM	140 nM	12 nM	280 nM	1400 nM	–	–
CCC(CC)COc1ccc(Cl)cc1Cn1nc(CCC(=O)O)cc1C [Example 3a, 3-{1-[5-Chloro-2-(2-ethyl-butoxy)-benzyl]-5-methyl-1H-pyrazol-3-yl}-propionic acid]	68 nM	1100 nM	71 nM	2900 nM	180 nM	5 nM	220 nM	7100 nM	dose dependent response	significantly lower number of itch-scratch episodes
Cc1cc(CCC(=O)O)nn1Cc1cc(Br)ccc1OCC1CCCC1 [Example 4, 3-[1-(5-Bromo-2-cyclopentylmethoxybenzyl)-5-methyl-1H-pyrazol-3-yl]-propionic acid]	120 nM	1600 nM	24 nM	1200 nM	75 nM	30 nM	240 nM	7800 nM	–	–

Continued, in another order:

Kb [1]	Kb [2]	Kb [3]	Kb [4]	Kb [5]	Kb [6]	Kb [7]	Kb [10]	SMILES	effect in model for uveitis (anterior chamber leukocyte infiltration score) [8]	number of itch-scratch episodes [9]
240 nM	6800 nM	24 nM	3400 nM	63 nM	7 nM	220 nM	–	Cc1cc(CCC(=O)O)nn1Cc1cc(C(F)(F)F)ccc1OCC1CCCC1 [Example 5, 3-[1-(2-Cyclopentylmethoxy-5-trifluoromethylbenzyl)-5-methyl-1H-pyrazol-3-yl]-propionic acid]	–	–
180 nM	1200 nM	80 nM	4500 nM	110 nM	3 nM	280 nM	–	Cc1cc(CCC(=O)O)nn1Cc1cc(Cl)ccc1OCC1CCCC1 [Example 4a, 3-[1-(5-Chloro-2-cyclopentylmethoxybenzyl)-5-methyl-1H-pyrazol-3-yl]-propionic acid]	–	–
